Laboratory results published in paper PMC12114619, “Nifuroxazide and 4-Hydroxybenzhydrazone Derivatives as New Antiparasitic (Trypanosoma cruzi and Leishmania mexicana) and Anti-Mycobacterium tuberculosis Agents” (Pharmaceutics, 2025).
≈ marks a conversion by molar mass, not a printed value. Where “and” joins values, the source holds several entries; their conditions need not be identical. Equal entries are not always repeated. Where two headings read alike, the source gives them in different places.

Columns and labels:
[1] = system: T. cruzi NINOA (MHOM/MX/1994/NINOA) strain epimastigotes; experiment: Trypanocidal activity, T. cruzi epimastigotes, NINOA strain (resazurin); type: cell-based, Trypanosoma cruzi; settings: 48 h
[2] = system: T. cruzi strain A1 epimastigotes; experiment: Trypanocidal activity, T. cruzi epimastigotes, A1 strain (resazurin); type: cell-based, Trypanosoma cruzi; settings: 48 h
[3] = system: M. tuberculosis H37Rv (ATCC 27294); experiment: Anti-Mycobacterium activity, microplate Alamar Blue Assay (MABA); type: cell-based, Mycobacterium tuberculosis; settings: H37Rv strain, minimum concentration achieving 90% inhibition; for MIC: Mycobacterium tuberculosis
Experimental: The reference strain H37Rv (ATCC 27294) of M. tuberculosis was utilized to assess anti-M. tuberculosis activity using the microplate Alamar Blue Assay (MABA), as previously reported. Samples underwent evaluation in triplicate independent experiments. Isoniazid, rifampicin, moxifloxacin, and linezolid were included as reference drugs, and the minimum drug concentration that achieved 90% inhibition was recorded as the minimum inhibitory concentration (MIC).

[4] = system: L. mexicana MNYC/BZ/62/M379 promastigotes; experiment: Leishmanicidal activity, L. mexicana promastigotes, M379 strain (MTT); type: cell-based, Leishmania mexicana; settings: 48 h
Experimental: (§1) For leishmanicidal assays, the reference strain (MNYC/BZ/62/M379) and the isolate (MHOM/MX/2017/UABJO17FCQEPS) of L. mexicana were used. Promastigotes were cultured in RPMI 1640 medium supplemented with 10% FBS, 100 U/mL penicillin-100 […] streptomycin, and glutamine (2 mM). 100 µL parasites (5 × 10^5/mL) were added in a 96-well plate, and 100 µL of appropriate concentrations (0.78 to 200 µM) of each sample dissolved in DMSO and incubated for 48 h at 26 °C. Wells containing promastigotes with DMSO 0.2% were used as a negative control, and the reference drug glucantime was included as the positive control. The 3-(4,5-Dimethylthiazol-2-yl)-2,5-diphenyltetrazolium bromide (MTT) was used to measure metabolic activity. The IC50 values were calculated with the probit statistical tool. All samples were evaluated in triplicate in three independent experiments.

[5] = system: L. mexicana MHOM/MX/2017/UABJO17FCQEPS promastigotes; experiment: Leishmanicidal activity, L. mexicana promastigotes, FCQEPS isolate (MTT); type: cell-based, Leishmania mexicana; settings: 48 h, FCQEPS strain
Experimental: as §1

[6] = Cytotoxicity on macrophages (MTT); type: cell-based, mouse; settings: mouse
Experimental: Cytotoxicity was assessed on J774.2 mouse macrophage cells (ATCC® TIB-67, ATCC, Manassas, VA, USA). Cells were cultured in RPMI medium supplemented with 10% SFB, 100 U µg/mL penicillin-100 mg/mL streptomycin, and glutamine (2 mM) at 37 °C and in a 5% CO2 atmosphere. A known concentration of cells (1 × 10^6/mL) was incubated with the compounds at different concentrations (0.78 to 200 µM) for 48 h at 37 °C in a CO2 atmosphere (5%). Wells containing cells treated with 0.2% DMSO were used as a negative control. MTT was employed to evaluate the metabolic activity. Next, the cell viability was calculated (%), and the cytotoxic concentration (CC50) was determined with probit analysis. All samples were evaluated in triplicate in three independent experiments.

[7] = Cytotoxicity (CC50) Macrophages J774.2

SMILES | IC50 ([1]; listed as Bzn) [µM] | IC50 ([1]; Trypanosoma cruzi) [µM] | IC50 [2] [µM] | IC50 ([2]; Trypanosoma cruzi) [µM] | MIC [3] [µg/mL] | IC50 L. mexicana M379 [4] | IC50 ([4]; Leishmania mexicana) [µM] | IC50 ([5]; Leishmania mexicana) [µM] | MABA MIC [3] [µg/mL] | CC50 at 48 h ([6]; J774.2 macrophage cells, J774.2 macrophages, 48 h, MTT, read-out: Cytotoxicity (CC50) Macrophages J774.2) [µM] | IC50 [1] [µM] | IC50 [5] [µM] | CC50 at 48 h [6, 7] [µM] | IC50 T. cruzi NINOA [1] | IC50 [4] | IC50 T. cruzi A1 [2] | IC50 ([1]; listed as Nfx) [µM]
O=C(Cn1ccnc1[N+](=O)[O-])NCc1ccccc1 [Benznidazole, reference compound] | 30 | > 30 | 39.1 ± 0.7 | 39 |  |  |  |  |  |  |  |  |  |  |  |  | 
NNC(=O)c1ccncc1 [Isoniazid, reference compound] |  |  |  |  | 0.039 (≈ 0.284 µM) |  |  |  |  |  |  |  |  |  |  |  | 
CC(=O)NC[C@H]1CN(c2ccc(N3CCOCC3)c(F)c2)C(=O)O1 [Linezolid, reference compound] |  |  |  |  | 0.33 (≈ 0.978 µM) |  |  |  |  |  |  |  |  |  |  |  | 
COc1c(N2C[C@@H]3CCCN[C@@H]3C2)c(F)cc2c(=O)c(C(=O)O)cn(C3CC3)c12 [Moxifloxacin, reference compound] |  |  |  |  | 0.184 (≈ 0.458 µM) |  |  |  |  |  |  |  |  |  |  |  | 
O=C(N/N=C/c1ccc([N+](=O)[O-])o1)c1ccc(O)cc1 [Nfz, Nifuroxazide] |  | 36 ± 1.2 | 10.4 ± 1.6 | 10.4 | < 20 | no leishmanicidal effects | > 200 | 51.2 ± 4.2 | 12.3 | 42.2 ± 2.3 |  |  |  |  |  |  | 
O=C(N/N=C/c1ccc([N+](=O)[O-])s1)c1ccc(O)cc1 [Nfz-1] |  | 11.9 | 14 ± 1.9 | < 15 |  | no leishmanicidal effects | > 200 | < 40 |  |  | 11.9 ± 3.2 | 32.9 ± 7 | 43.3 ± 2.7 |  |  |  | 
O=C(N/N=C/c1ccc(Br)s1)c1ccc(O)cc1 [Nfz-2] |  | 4.7 |  | > 100 | < 20 | no leishmanicidal effects | > 200 | 98.8 ± 5.2 | 18.8 |  | 4.77 ± 5.6 |  | 95.5 ± 4.2 |  |  |  | 
O=C(N/N=C/c1cccs1)c1ccc(O)cc1 [Nfz-3] |  | > 50 | 20 ± 1.9 | 19.9 | > 100 | no leishmanicidal effects | > 200 | 49.8 ± 5 |  |  | 51 ± 2.8 |  |  |  |  |  | 
O=C(N/N=C/c1ccco1)c1ccc(O)cc1 [Nfz-4] |  | 18.8 | 28.9 ± 3.4 | 28.8 | > 100 |  | 83.9 ± 6.9 | > 200 |  |  | 19 ± 2.1 |  | > 100 |  |  |  | 
Cn1cccc1/C=N/NC(=O)c1ccc(O)cc1 [Nfz-5] |  | > 100 | 78.5 ± 4.7 | > 100 | > 100 |  | 5.2 | > 200 |  |  |  |  | 21.9 ± 4.4 | inactivity | 5.25 ± 5.8 µM |  | 
O=C(N/N=C/c1ccccc1)c1ccc(O)cc1 [Nfz-6] |  | > 100 | 74.4 ± 4.4 | > 70 | > 100 |  | > 90 | > 200 |  |  |  |  | 28.8 ± 1.5 | inactive | 94.22 ± 0.9 µM |  | 
Cc1ccc(/C=N/NC(=O)c2ccc(O)cc2)cc1 [Nfz-7] |  | 26 | 75.2 ± 8.8 | > 70 | 98.3 (≈ 387 µM) |  |  | 103 ± 2.1 |  |  | 26 ± 2.9 |  | 91.7 ± 5.1 |  |  |  | 
CCc1ccc(/C=N/NC(=O)c2ccc(O)cc2)cc1 [Nfz-8] |  | 14.4 | 7.28 ± 2.2 | 7.2 | 79.4 (≈ 296 µM) |  |  | > 200 |  |  | 14.5 ± 4.4 |  | > 100 |  |  |  | 
O=C(N/N=C/c1ccc(O)cc1)c1ccc(O)cc1 [Nfz-9] |  | 24.9 ± 3.2 |  | > 100 | 94.1 (≈ 367 µM) |  |  | 94.3 ± 5.9 |  |  |  |  | 82.7 ± 4.4 |  |  |  | 
O=C(N/N=C/c1ccccc1O)c1ccc(O)cc1 [Nfz-10] |  | > 100 | 8.77 ± 1.6 | 8.7 | < 50 |  | > 50 | > 200 | 47.6 |  |  |  | > 100 |  | 66.7 ± 2.9 µM |  | 
COc1ccc(/C=N/NC(=O)c2ccc(O)cc2)cc1 [Nfz-11] |  | 28.2 | 18.2 ± 1.4 | 18.1 | > 100 |  | > 200 | > 200 |  |  | 28.2 ± 1.4 |  | 46.6 ± 4.9 |  |  |  | 

SMILES | IC50 ([1]; listed as Bzn) [µM] | IC50 ([1]; Trypanosoma cruzi) [µM] | IC50 [2] [µM] | IC50 ([2]; Trypanosoma cruzi) [µM] | MIC [3] [µg/mL] | IC50 L. mexicana M379 [4] | IC50 ([4]; Leishmania mexicana) [µM] | IC50 ([5]; Leishmania mexicana) [µM] | MABA MIC [3] [µg/mL] | CC50 at 48 h ([6]; J774.2 macrophage cells, J774.2 macrophages, 48 h, MTT, read-out: Cytotoxicity (CC50) Macrophages J774.2) [µM] | IC50 [1] [µM] | IC50 [5] [µM] | CC50 at 48 h [6, 7] [µM] | IC50 T. cruzi NINOA [1] | IC50 [4] | IC50 T. cruzi A1 [2] | IC50 ([1]; listed as Nfx) [µM]
COc1ccccc1/C=N/NC(=O)c1ccc(O)cc1 [Nfz-12] |  | > 100 |  | > 100 | > 100 |  | < 20 | 60.3 ± 4.7 |  |  |  |  | 76.5 ± 3.6 | inactivity | 11.5 µM and 11.6 µM |  | 
COc1cccc(/C=N/NC(=O)c2ccc(O)cc2)c1OC [Nfz-13] |  | > 60 |  | > 100 | 158 (≈ 525 µM) |  | 162 ± 6.9 | 124.5 ± 1.1 |  |  | 63.1 ± 1.4 |  | > 100 |  |  |  | 
COc1cc(/C=N/NC(=O)c2ccc(O)cc2)cc(OC)c1OC [Nfz-14] |  | 28 ± 1.9 | 29.2 ± 4.4 | 29.2 | > 200 |  | > 200 | 10.2 |  |  |  | 10.3 ± 0.8 | > 100 |  |  |  | 
O=C(N/N=C/c1ccc(F)cc1)c1ccc(O)cc1 [Nfz-15] |  | > 100 | 32.6 ± 2.8 | < 50 | > 100 |  | ~30 | 102 ± 2.7 |  |  |  |  | 74 ± 3.4 | loss of trypanocidal activity | 35.1 ± 4.7 µM |  | 
O=C(N/N=C/c1ccc(Cl)cc1)c1ccc(O)cc1 [Nfz-16] |  | > 100 | 40.2 ± 2.7 | < 50 | < 50 |  | > 60 | 78.1 ± 3.6 | 46.4 |  |  |  | 83.2 ± 3.2 | loss of trypanocidal activity | 67.5 ± 4 µM |  | 
O=C(N/N=C/c1ccc(Br)cc1)c1ccc(O)cc1 [Nfz-17] |  | > 100 | 33.6 ± 3.9 | < 50 | < 50 |  | > 60 | 52.1 ± 4.8 | 43.6 |  |  |  | > 100 | loss of trypanocidal activity | 62 ± 2.5 µM |  | 
O=C(N/N=C/c1ccccc1[N+](=O)[O-])c1ccc(O)cc1 [Nfz-19] |  | 36.4 | 42.5 ± 6.7 | 42.4 | > 100 |  | > 100 | > 200 |  |  | 36.5 ± 2.2 |  | > 100 |  | 146.7 ± 0.7 µM |  | 
O=C(N/N=C/c1ccc2ccccc2c1)c1ccc(O)cc1 [Nfz-20] |  | > 100 | 24.5 ± 2 | 24.4 | > 100 |  | < 30 | > 200 |  |  |  |  | 88.3 ± 3.9 | loss of the activity | 28.4 ± 2.8 µM |  | 
O=C(N/N=C/c1ccc2c(c1)OCCO2)c1ccc(O)cc1 [Nfz-21] |  | > 100 |  | 49 ± 2.1 | 68.7 (≈ 230 µM) |  | 71.5 ± 4.9 | > 200 |  |  |  |  | > 100 | loss of the activity |  |  | 
O=C(N/N=C/c1ccc(-c2ccccc2)cc1)c1ccc(O)cc1 [Nfz-22] |  | 6.8 |  | > 100 | > 100 |  | > 200 | 133 ± 1.4 |  |  | 6.87 ± 1.2 |  | 43.5 ± 2.5 |  |  |  | 
O=C(N/N=C/c1cc2c(cc1[N+](=O)[O-])OCO2)c1ccc(O)cc1 [Nfz-23] |  | > 100 | 13.5 ± 3.4 | 13.5 | > 100 |  | < 20 | > 200 |  |  |  |  | 68.9 ± 6.6 | loss of the activity | 16 ± 2 µM |  | 
CC(=O)Nc1ccc(/C=N/NC(=O)c2ccc(O)cc2)cc1 [Nfz-24] |  |  | 22.2 ± 1.4 | 22.1 | > 100 |  | 54.1 | 55.8 ± 3.5 |  |  |  |  | > 100 |  | 54.2 ± 4 µM |  | 
COC(=O)c1ccc(/C=N/NC(=O)c2ccc(O)cc2)cc1 [Nfz-25] |  | > 100 |  | > 100 | < 50 |  | 32.5 ± 6.1 | > 200 | 45.9 |  |  |  | > 100 | no activity |  | inactive | 
CC1CS(=O)(=O)CCN1/N=C/c1ccc([N+](=O)[O-])o1 (centres unmarked) [Nifurtimox, reference compound] |  | > 7 |  | 19.3 ± 0.8 |  |  |  |  |  |  | 7.09 ± 0.2 |  |  |  |  |  | 7
CO[C@H]1/C=C/O[C@@]2(C)Oc3c(C)c(O)c4c(O)c(c(/C=N/N5CCN(C)CC5)c(O)c4c3C2=O)NC(=O)/C(C)=C\C=C\[C@H](C)[C@H](O)[C@@H](C)[C@@H](O)[C@@H](C)[C@H](OC(C)=O)[C@@H]1C [Rifampin, reference compound] |  |  |  |  | 0.074 (≈ 0.0899 µM) |  |  |  |  |  |  |  |  |  |  |  | 
